One test concerns the target T1, human GC-A (Homo sapiens, UniProt P16066).
T1 construct: host or cells: HEK293
T1 sequence (P16066 33-1061): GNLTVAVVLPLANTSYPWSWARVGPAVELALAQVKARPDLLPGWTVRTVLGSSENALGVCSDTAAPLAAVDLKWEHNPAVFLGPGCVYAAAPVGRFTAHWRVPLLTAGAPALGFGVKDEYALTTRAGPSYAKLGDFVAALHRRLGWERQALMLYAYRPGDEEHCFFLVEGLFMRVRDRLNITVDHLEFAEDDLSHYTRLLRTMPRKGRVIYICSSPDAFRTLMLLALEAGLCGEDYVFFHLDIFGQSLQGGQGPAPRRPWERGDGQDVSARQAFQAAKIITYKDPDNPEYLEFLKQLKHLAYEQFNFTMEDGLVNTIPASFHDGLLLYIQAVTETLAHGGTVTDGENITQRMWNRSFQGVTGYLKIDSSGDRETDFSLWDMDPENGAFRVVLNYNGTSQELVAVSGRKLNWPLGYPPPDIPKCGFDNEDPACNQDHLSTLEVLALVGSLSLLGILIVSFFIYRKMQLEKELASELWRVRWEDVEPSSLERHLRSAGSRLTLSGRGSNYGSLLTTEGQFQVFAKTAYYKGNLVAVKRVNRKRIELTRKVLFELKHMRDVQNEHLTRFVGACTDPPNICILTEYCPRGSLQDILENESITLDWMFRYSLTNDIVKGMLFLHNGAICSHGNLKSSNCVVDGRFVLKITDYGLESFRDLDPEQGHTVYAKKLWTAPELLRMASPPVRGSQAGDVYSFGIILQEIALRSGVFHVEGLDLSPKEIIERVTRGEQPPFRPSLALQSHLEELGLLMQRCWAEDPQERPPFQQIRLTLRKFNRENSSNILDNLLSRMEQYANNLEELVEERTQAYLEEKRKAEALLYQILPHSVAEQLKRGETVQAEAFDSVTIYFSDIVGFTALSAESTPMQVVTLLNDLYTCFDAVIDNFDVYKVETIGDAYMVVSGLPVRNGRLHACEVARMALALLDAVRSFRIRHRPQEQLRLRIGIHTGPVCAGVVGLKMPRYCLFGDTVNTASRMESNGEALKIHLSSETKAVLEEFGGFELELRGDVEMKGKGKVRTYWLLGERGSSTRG
Briefly: cGMP generation in HEK293 cells transfected with human GC-A receptor. The conditions noted are these: vs vehicle; for cGMP generation: HEK293 cells overexpressing human GC-A, 10^-8, 10^-7, 10^-6 M, 10 minutes. In kind it is cell-based. An excerpt:
(§1) cGMP Generation in HEK293 Cells Transfected with Human GC-B or GC-A Receptor In Vitro: HEK293 cells were stably transfected with either human GC-B or GC-A (cDNA clones from Origene, Rockville, MD) using LIPOFECTAMINE® (Invitrogen, Grand Island, NY). Receptors overexpression was verified with immunofluorescence and western blotting. GC-B/-A transfected HEK293 cells were maintained in Dulbecco's modified Eagle's medium supplemented with 10% fetal bovine serum, 100 U/mL penicillin, 100 U/mL streptomycin, and 250 μg/mL G418. Cells were seeded in 48-well plates and cultured overnight to reach 80-90% confluency. The treatment buffer that includes, Hank's Balanced Salt Solution (HBSS) including 0.1% BSA, 2 mM HEPES and 0.5 mM 3-isobutyl-1-methylzanthine (IBMX—a non-specific phosphodiesterase inhibitor, Sigma, St. Louis, MO), was used in all experiments. HEK293 cells received treatment buffer (vehicle) only was used as a negative control and ANP (10^−8M) was used as a positive control in HEK293 GC-A cells and CNP (10^−8 M) was used as a positive control in HEK293 GC-B cells. Concentrations of CD-NP, CRRL-404, CRRL-405, CRRL-407 or CRRL=408 (10^−8, 10^−7, and 10^−6 M) in HBSS were incubated with HEK293 transfected GC-B or GC-A cells for 10 minutes. After treatment, all cells were washed with phosphate buffered solution (PBS) once and lysed with 0.1M HCl. Intracellular cGMP was measured in the lysate using a commercial cGMP ELISA kit (Enzo Life Sciences, Farmingdale, NY) as instructed by the manufacturer.
(§2) cGMP Assay: The ELISA plate was coated in neutralizing solution (50 μL), prior to addition of samples and standards. Cell lysates (100 μL) and standards (100 μL), in 0.1M HCL, were incubated with cGMP conjugate (50 μL) and cGMP antibody (50 μL) at room temperature for 2 hours, 500 rpm. The plates were washed 4 times and 200 μL of pNPP substrate was added in each well and incubated for 1 hour at room temperature. The reaction was stopped by adding stop solution and absorbance was read at 405 nm and corrected for plate imperfections at 570 nm using SpectramaxM2. Standard curve was generated using the Softmaxpro software and unknown concentrations were extrapolated based on the standard curve. Samples exceeding the standard curve were diluted as needed in 0.1M HCl and corresponding dilution factors were applied to extrapolate final concentrations. The standard curve range is from 0.8 pmol/mL-500 pmol/mL. The % CV at EC50 is 6.6%.

Another test concerns the target T2, human GC-B (Homo sapiens, UniProt P20594).
T2 construct: host or cells: HEK293
T2 sequence (P20594 23-1047): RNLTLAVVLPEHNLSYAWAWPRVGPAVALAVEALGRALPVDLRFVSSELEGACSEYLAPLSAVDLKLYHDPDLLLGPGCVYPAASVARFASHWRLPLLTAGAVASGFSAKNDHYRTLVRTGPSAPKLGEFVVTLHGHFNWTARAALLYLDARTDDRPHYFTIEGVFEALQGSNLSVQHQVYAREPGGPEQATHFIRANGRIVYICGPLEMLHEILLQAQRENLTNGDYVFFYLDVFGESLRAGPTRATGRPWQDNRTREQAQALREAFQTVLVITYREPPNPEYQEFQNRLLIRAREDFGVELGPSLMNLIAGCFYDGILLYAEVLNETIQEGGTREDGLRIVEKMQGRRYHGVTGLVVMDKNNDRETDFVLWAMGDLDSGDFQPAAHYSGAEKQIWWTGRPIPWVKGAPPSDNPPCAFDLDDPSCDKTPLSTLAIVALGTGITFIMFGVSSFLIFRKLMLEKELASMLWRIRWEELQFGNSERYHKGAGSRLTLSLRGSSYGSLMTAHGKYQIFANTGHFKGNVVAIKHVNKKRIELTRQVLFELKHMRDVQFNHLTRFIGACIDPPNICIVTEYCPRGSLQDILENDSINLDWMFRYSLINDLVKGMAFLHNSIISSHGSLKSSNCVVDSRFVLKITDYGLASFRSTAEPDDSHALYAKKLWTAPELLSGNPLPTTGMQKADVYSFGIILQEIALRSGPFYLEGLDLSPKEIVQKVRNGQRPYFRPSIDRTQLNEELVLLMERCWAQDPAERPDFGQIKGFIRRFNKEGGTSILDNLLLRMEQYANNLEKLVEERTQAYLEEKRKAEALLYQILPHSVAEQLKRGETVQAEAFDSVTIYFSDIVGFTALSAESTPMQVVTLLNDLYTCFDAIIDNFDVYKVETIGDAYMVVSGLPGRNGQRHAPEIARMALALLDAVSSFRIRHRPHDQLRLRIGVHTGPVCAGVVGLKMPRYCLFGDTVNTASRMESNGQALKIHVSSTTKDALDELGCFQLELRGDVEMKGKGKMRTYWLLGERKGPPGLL
Briefly: cGMP generation in HEK293 cells transfected with human GC-B receptor. In kind it is cell-based. Particulars: vs vehicle; for cGMP generation: HEK293 cells overexpressing human GC-B, 10^-8, 10^-7, 10^-6 M, 10 minutes.
Text: as §1, §2

In test [1] the test system is human renal fibroblasts (HRFs). The test can be described thus: cGMP generation in human primary renal fibroblasts. In kind it is cell-based. Particulars: 10^-8, 10^-7, 10^-6 M, 10 minutes, vs vehicle. The procedure: (§3) cGMP Generation in Human Primary Renal Cells: Human primary renal fibroblasts (HRFs, Cell Biologics, Chicago, IL) and human renal proximal tubular epithelial cells (HRPTCs, ScienCell Research Laboratories, Carlsbad, CA) were maintained and sub-cultured according to the manufacturer's protocols. Briefly, the cells were grown in 6-well plates until 80% confluency and were then treated with treatment buffer (vehicle; HBSS including 0.1% BSA, 2 mM HEPES and 0.5 mM IBMX) alone or with concentrations of CRRL-408 (10^−8, 10^−7 and 10^−6 M) for 10 minutes. Cells were washed with PBS once and lysed with 0.1M HCl. Intracellular cGMP was measured in the lysate using a commercial cGMP ELISA kit (Enzo Life Sciences, Farmingdale, NY) as instructed by the manufacturer described below.
(§4) cGMP Assay: The ELISA plate was coated in neutralizing solution (50 μL), prior to addition of samples and standards. Cell lysates (100 μL) and standards (100 μL), in 0.1M HCL, were incubated with cGMP conjugate (50 μL) and cGMP antibody (50 μL) at room temperature for 2 hours, 500 rpm. The plates were washed 4 times and 200 μL of pNPP substrate was added in each well and incubated for 1 hour at room temperature. The reaction was stopped by adding stop solution and absorbance was read at 405 nm and corrected for plate imperfections at 570 nm using SpectramaxM2. […]

Test [2] concerns human renal proximal tubular cells (HRPTCs). Briefly: cGMP generation in human renal proximal tubular epithelial cells. In kind it is cell-based. The conditions noted are these: 10^-8, 10^-7, 10^-6 M, 10 minutes, vs vehicle. As for the experimental part:
as §3, §4

For a further test, the system named is normal rats. The test can be described thus: Acute IV infusion in vivo study, plasma and urinary cGMP. Also noted: species or system rat. Particulars: IV infusion 2.12 μg/kg/min, vs vehicle (saline). The procedure:
Acute IV Infusion In Vivo Study: the cGMP generating actions of 2.12 μg/kg/minute dose CRRL-408 or vehicle (0.9% normal saline) [n=4/group] was investigated in normal rats (approximately 2 months old; 200-250 grams; Envigo, East Millstone, NJ). Studies were performed in accordance with the Animal Welfare Act and with approval of the Mayo Clinic Institutional Animal Care and Use Committee.
Rats were anesthetized with isoflurane (2-3% in oxygen) and were subjected to vessel and bladder cannulation for peptide/vehicle infusion, blood sampling and urine collection. A polyethylene (PE)-50 tube catheter was placed into the jugular vein for CRRL-408/vehicle intravenous (IV) infusion. The carotid artery was cannulated with a PE-50 tube catheter for blood sampling. The bladder was accessed and cannulated with a PE-50 tube catheter for passive urine collection. After completion of the above procedural set up, a 30 minute equilibration period was performed that included continuous IV saline infusion. After the 30 minute equilibration period the saline infusion was replaced by a continuous IV infusion (75 min including a 15 minute lead-in period) of 2.12 μg/kg/minute dose of CRRL-408 or vehicle. The infusion rate was weight adjusted and calculated as follows: rat weight (grams)*0.7/60/100 mL/minute. […]

The record followed here is US12661388B2, “Assessing and treating acute decompensated heart failure” (Mayo Foundation for Medical Education and Research, priority 2020, dated 2026).

Take “KYKGANKKGLSKGCFGLKLDRIGSMSGLGCPSLRDPRPNAPSTSA [CRRL-408]”: the cGMP generation result at human GC-A and at human GC-B was “stimulated cGMP generation” throughout. Further, the “intracellular cGMP levels” value in test [1] and in test [2] was “increased intracellular cGMP levels in a dose dependent manner” in each case. In the test with normal rats, the “plasma cGMP” value is recorded as “significantly elevated”. In addition, the “urinary cGMP” value with normal rats is listed as “significantly elevated”.
For the substance “KGANKKGLSKGCFGLKLDRIGSMSGLGCPSLRDPRPNAPSTSA [CRRL-407]”, the cGMP generation result at human GC-A and at human GC-B was “stimulated cGMP generation” in each case.
On to “ANKKGLSKGCFGLKLDRIGSMSGLGCPSLRDPRPNAPSTSA [CRRL-405]”, for which the cGMP generation entry on human GC-A and on human GC-B was “stimulated cGMP generation” each time.
Take “CNP: C-type natriuretic peptide, used as a positive control in HEK293 GC-B cells [reference compound]”: the “cGMP generation (positive control)” value in the test with human GC-B (HEK293 GC-B cells, 10^-8 M) was “significant cGMP generation response”.
In the case of “ANP: natriuretic peptide used as a positive control in HEK293 GC-A cells [reference compound]”, the “cGMP generation (positive control)” value in the test with human GC-A (HEK293 GC-A cells, 10^-8 M) was “significant cGMP generation response”.
As for “KKGLSKGCFGLKLDRIGSMSGLGCPSLRDPRPNAPSTSA [CRRL-404]”, the cGMP generation entry at human GC-A and on human GC-B was “stimulated cGMP generation” in each case.
With “GLSKGCFGLKLDRIGSMSGLGCPSLRDPRPNAP STSA [CD-NP, reference compound]”, the cGMP generation result at human GC-A and at human GC-B was “stimulated cGMP generation” in each case.
